{"source": "patent US20250152612A1", "about": "“POLYPEPTIDE COUPLED BORON CARRYING AGENT, PREPARATION METHOD THEREFOR, AND PHARMACEUTICAL FORMULATION” (Peking University, priority 2021, published 2025)", "key": {"HS683 cells": {"system": "HS683 cells", "details": "12 hours incubation; B content per 10^6 cells; FIG. 4", "protocol": "(§1) 0.2 mg/g. 0.4 mg/g. 0.6 mg/g and 0.8 mg/g, added to U87MG, U251, A375, A549, HS683 and Hep cell lines cultured in 25 T petri dishes, respectively, and incubated in a thermostatic incubator for 12 hours. Subsequently, the cells and culture medium were separated, and the number of cells was determined. After digesting the cells with concentrated nitric acid, the B content in the cells was determined by ICP-AES.\n(§2) Meanwhile, the BPA was formulated into aqueous solutions of 0.1 mg/g, 0.2 mg/g, 0.4 mg/g, 0.6 mg/g, and 0.8 mg/g, added into U87MG, U251, A375, A549, HS683 and Hep cell lines cultured in 25 T petri dishes, respectively, and incubated in a thermostatic incubator for 12 hours. Subsequently, the cells and culture medium were separated, and the number of cells was determined. After digesting the cells with concentrated nitric acid, the B content in the cells was determined by ICP-AES.\n(§3) The […] is 249.772 nm. After determination, the B content contained in every 10^6 cells can be calculated and plotted in FIG. 4."}, "A375 cells": {"system": "A375 cells", "details": "12 hours incubation; B content per 10^6 cells; FIG. 4", "protocol": "as §1, §2, §3"}}, "data": [{"substance": "N-4-carboxyphenylboronic acid amide-arginine-lysine-lysine-lysine-arginine-arginine-glutamine-arginine-arginine-arginine [compound 2]", "values": [{"measurement": "uptake in cerebral glioma HS683 cells compared with BPA", "setting": "HS683 cells", "value": "significantly higher than BPA"}, {"measurement": "uptake in A375 cells compared with BPA", "setting": "A375 cells", "value": "significantly higher than BPA"}]}]}
